The values below come from patent US8778919B2, “Cyclic anilino—pyridinotriazines” (Janssen Pharmaceutica NV, priority 2005, dated 2014).

One test deals with CDK5/p35 human (Homo sapiens, UniProt Q00535). Put plainly: Kinase profiling C3.6 CDK5/p35 human. The note with it: CDK5/p35, test concentration of 10^−6 M. Type of test: biochemical. A digest of the protocol: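 Radiometric filter-binding assay: human CDK5/p35 (5-10 mU) with 0.1 mg/ml histone H1 substrate in 8 mM MOPS pH 7.0, 0.2 mM EDTA, 10 mM Mg acetate and [γ-33P]ATP. Incubated 40 min at room temperature, stopped with phosphoric acid. Substrate 33P incorporation counted on P30 filtermat by scintillation.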

For the next test, the target named is CDK6/cyclinD3 human (Homo sapiens, UniProt Q00534). Put plainly: Kinase profiling C3.7 CDK6/cyclinD3 human. Type of test: biochemical. Conditions: CDK6/cyclinD3, test concentration of 10^−6 M.
A further test has as its target T1, Aurora-A (h) (Homo sapiens, UniProt O14965).
T1 sequence (O14965 1-403): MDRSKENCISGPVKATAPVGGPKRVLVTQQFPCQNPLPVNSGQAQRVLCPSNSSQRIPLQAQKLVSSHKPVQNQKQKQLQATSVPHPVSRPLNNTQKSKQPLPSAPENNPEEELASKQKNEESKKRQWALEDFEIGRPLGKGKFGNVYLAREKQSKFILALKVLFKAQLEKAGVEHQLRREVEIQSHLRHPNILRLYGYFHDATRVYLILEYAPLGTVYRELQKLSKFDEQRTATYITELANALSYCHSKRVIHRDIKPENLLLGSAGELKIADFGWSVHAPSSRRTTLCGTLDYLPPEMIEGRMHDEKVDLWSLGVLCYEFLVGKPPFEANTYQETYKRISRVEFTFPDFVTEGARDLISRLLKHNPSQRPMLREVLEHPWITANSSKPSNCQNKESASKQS
Put plainly: Kinase profiling C3.1 Aurora-A human. The note with it: test concentration of 10^−6 M. Format: biochemical. Here is the method: (§1) The in vitro inhibition of a panel of kinases was assessed using either the glass-fiber filter technology as described by Davies, S. P. et al., Biochem J. (2000), 351; p. 95-105. In the glass-fiber filter technology the activity of the kinase of interest is measured using an appropriate substrate that is incubated with the aforementioned kinase protein in the presence of (^33P) radiolabeled ATP. (^33P) Phosporylation of the substrate is subsequently measured as radioactivity bound on a glassfiber-filter.
(§2) All kinases are pre-diluted to a 10× working concentration prior to addition into the assay. The composition of the dilution buffer for each kinase is detailed below.
(§3) All substrates are dissolved and diluted to working stocks in de-ionised water, apart from histone H1 that is stored in 10× working stock in 20 mM MOPS pH 7.4.
(§4) In a final reaction volume of 25 μl, Aurora-A (h) (5-10 mU) is incubated with 8 mM MOPS pH 7.0, 0.2 mM EDTA, 200 μM LRRASLG (Kemptide), 10 mM MgAcetate and [γ-^33P-ATP] (specific activity approx. 500 cpm/pmol, concentration as required). The reaction is initiated by the addition of the MgATP mix. After incubation for 40 minutes at room temperature, the reaction is stopped by the addition of 5 μl of a 3% phosphoric acid solution. 10 μl of the reaction is then spotted onto a P30 filtermat and washed three times for 5 minutes in 50 mM phosphoric acid and once in methanol prior to drying and scintillation counting.

The next test has as its target Yes (h) (Homo sapiens, UniProt P07947). Put plainly: Kinase profiling C3.10 Yes human. Conditions: test concentration of 10^−6 M. Type of test: biochemical. On the procedure:
as §1, §2, §3
as §4, with “μl, Yes” for “μl, Aurora-A”, “EDTA, 0.1 mg/ml poly(Glu, Tyr) 4:1,” for “EDTA, 200 μM LRRASLG (Kemptide),”, “a Filtermat A” for “a P30 filtermat”, “in 75” for “in 50”

In a further test the test system is Chang cells. Put plainly: GSK-3 cellular assay (C2): 14C-D-glucose incorporation into glycogen. Type of test: cell-based. Conditions: increase in D-glucose incorporation into glycogen, test concentration of 10^−6 M. On the procedure: Test compounds were tested for their ability to increase the incorporation of ^14C-D-glucose into glycogen in living cells. To do this, Chang cells (360,000 cells/well) were cultured in 0.5 ml of MEM Rega 3 medium supplemented with 10% fetal calf serum, 1% L-glutamine and 2% sodium carbonate. After 3 days, cells were washed with 0.5 ml of phosphate-buffered saline and overlayed with 1 ml of serum- and glucose-free DMEM medium. Then, 2 μl of compound in DMSO and 50 μl substrate (3 mM glucose and 0.5 μCi ^14C-D-glucose were added and the cultures were incubated for 90 min. Cells were then extracted with 0.5 ml of 20% KOH for 60 min at 37° C. and the cell lysates were transferred to 10 ml tubes containing 300 μl of 1 mg/ml glycogen as […]. Following the addition of 2 ml ethanol, total glycogen was precipitated overnight at −20° C. and the precipitates were recovered by centrifugation. Precipitates were then resuspended in 1 ml of water and transferred to scintillation counter vials. and the amount of ^14C-D-glucose incorporation into glycogen was measured by scintillation counting. Scores for the compounds according to the invention, were obtained at a test concentration of 10^−6 M. Score 1=10-30% increase, Score 2=30-60% increase, Score 3=60-80% increase and Score 4=>80% increase in D-glucose incorporation.

Chain of CDK5/p35 human (Q00535 whole entry): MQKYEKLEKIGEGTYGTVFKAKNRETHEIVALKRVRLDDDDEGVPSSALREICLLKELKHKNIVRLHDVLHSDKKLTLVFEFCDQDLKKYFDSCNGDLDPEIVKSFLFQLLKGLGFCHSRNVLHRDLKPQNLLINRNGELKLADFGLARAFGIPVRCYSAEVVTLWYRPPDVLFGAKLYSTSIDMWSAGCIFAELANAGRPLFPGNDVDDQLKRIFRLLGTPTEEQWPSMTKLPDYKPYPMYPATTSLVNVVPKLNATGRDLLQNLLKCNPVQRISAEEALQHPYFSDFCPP
Chain of CDK5/p35 human (Q15078 whole entry partner): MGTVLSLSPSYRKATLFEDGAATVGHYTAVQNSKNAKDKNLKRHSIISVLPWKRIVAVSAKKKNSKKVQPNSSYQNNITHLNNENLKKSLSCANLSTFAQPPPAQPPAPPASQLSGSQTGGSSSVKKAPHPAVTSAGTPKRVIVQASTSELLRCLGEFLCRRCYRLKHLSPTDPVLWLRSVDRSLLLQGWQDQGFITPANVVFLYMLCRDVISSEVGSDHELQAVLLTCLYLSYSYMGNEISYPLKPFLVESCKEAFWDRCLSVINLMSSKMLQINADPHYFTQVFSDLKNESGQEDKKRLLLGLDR
Chain of Yes (h) (P07947 whole entry): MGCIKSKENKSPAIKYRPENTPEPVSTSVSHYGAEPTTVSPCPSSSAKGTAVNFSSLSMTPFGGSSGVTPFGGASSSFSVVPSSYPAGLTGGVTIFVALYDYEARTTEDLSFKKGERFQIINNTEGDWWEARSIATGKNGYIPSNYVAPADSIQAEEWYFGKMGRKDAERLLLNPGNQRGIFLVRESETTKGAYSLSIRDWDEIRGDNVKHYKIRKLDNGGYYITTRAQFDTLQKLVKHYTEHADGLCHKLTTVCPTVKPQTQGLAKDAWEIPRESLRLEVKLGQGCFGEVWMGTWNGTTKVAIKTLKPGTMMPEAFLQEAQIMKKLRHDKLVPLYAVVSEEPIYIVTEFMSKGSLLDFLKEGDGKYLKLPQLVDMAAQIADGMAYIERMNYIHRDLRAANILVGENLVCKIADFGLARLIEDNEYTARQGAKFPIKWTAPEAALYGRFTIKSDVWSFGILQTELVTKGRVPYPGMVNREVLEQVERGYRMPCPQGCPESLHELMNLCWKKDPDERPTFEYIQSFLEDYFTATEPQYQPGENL
Chain of CDK6/cyclinD3 human (Q00534 whole entry): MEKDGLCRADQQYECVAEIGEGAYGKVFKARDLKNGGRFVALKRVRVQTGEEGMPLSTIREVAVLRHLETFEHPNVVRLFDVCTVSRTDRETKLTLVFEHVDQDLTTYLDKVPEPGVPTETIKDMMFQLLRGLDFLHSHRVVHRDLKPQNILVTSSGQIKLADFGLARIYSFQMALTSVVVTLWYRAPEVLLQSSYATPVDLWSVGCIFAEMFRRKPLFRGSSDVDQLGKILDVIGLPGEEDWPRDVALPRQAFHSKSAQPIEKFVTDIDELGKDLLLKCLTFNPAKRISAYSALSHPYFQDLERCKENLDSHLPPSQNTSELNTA
Chain of CDK6/cyclinD3 human (P30281 whole entry partner): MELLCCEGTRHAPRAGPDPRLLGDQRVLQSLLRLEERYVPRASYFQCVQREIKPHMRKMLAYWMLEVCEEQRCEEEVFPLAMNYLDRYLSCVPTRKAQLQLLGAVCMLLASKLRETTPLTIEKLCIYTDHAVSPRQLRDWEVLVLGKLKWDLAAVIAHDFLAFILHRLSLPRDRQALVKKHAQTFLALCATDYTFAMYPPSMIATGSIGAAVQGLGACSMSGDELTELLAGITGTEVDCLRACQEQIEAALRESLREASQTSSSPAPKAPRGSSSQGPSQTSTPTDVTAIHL

Take `CN1CCN(CCN2CCC(=O)NCCCc3cc(ccn3)-c3ncnc(n3)Nc3cccc(c3)C2)CC1` [Compound 11]: the C3.6 score on CDK5/p35 human is listed as 1 (Score 1 = 10-30% inhibition). In addition, the C3.7 score at CDK6/cyclinD3 human is 1 (Score 1 = 10-30% inhibition). Further, the C3.1 score on Aurora-A (h) was 1 (Score 1 = 10-30% inhibition). Moreover, on Yes (h), the C3.10 score is reported as 1 (Score 1 = 10-30% inhibition).
Turning to `CN1CC(=O)NCCCc2cc(ccn2)-c2ncnc(n2)Nc2cccc(c2)C1` [Compound 8], on CDK5/p35 human, the C3.6 score was 3 (Score 3 = 60-80% inhibition). Further, the C3.7 score on CDK6/cyclinD3 human is reported as 2 (Score 2 = 30-60% inhibition). Also, in the test on Chang cells, the “C2 Score” value is reported as 4 (Score 4=>80% increase in D-glucose incorporation).
Regarding `CN1CC(=O)NC/C(Cl)=C/c2cc(ccn2)-c2ncnc(n2)Nc2cccc(c2)C1` [Compound 2], the C3.6 score on CDK5/p35 human is recorded as 4 (Score 4 = >80% inhibition). At CDK6/cyclinD3 human, the C3.7 score was 4 (Score 4 = >80% inhibition). The “C2 Score” value in the test with Chang cells was 4 (Score 4=>80% increase in D-glucose incorporation). The C3.1 score on Aurora-A (h) was 2 (Score 2 = 30-60% inhibition). Moreover, the C3.10 score on Yes (h) is reported as 4 (Score 4 = >80% inhibition).
For the compound `CN1CC(=O)NCCCc2cc(ccn2)-c2ncnc(n2)Nc2cccc(c2)C1` [Compound 10], at CDK5/p35 human, the C3.6 score is 4 (Score 4 = >80% inhibition). Also, the C3.7 score at CDK6/cyclinD3 human is 4 (Score 4 = >80% inhibition). Moreover, the “C2 Score” value in the test with Chang cells was 4 (Score 4=>80% increase in D-glucose incorporation). In addition, the C3.1 score on Aurora-A (h) is on record as 1 (Score 1 = 10-30% inhibition). The C3.10 score at Yes (h) is 2 (Score 2 = 30-60% inhibition).
With `CCN1CCCc2cc(ccn2)-c2ncnc(n2)Nc2cccc(c2)CCNC(=O)C1` [Compound 30], at CDK5/p35 human, the C3.6 score is reported as 4 (Score 4 = >80% inhibition). The C3.7 score at CDK6/cyclinD3 human is given as 1 (Score 1 = 10-30% inhibition). Also, the “C2 Score” value with Chang cells is 4 (Score 4=>80% increase in D-glucose incorporation).
Consider `O=C1CN2CCN(CC2)Cc2cccc(c2)Nc2ncnc(n2)-c2ccc(F)c(c2)CCCN1` [Compound 66], for which, on CDK5/p35 human, the C3.6 score is 3 (Score 3 = 60-80% inhibition). The “C2 Score” value in the test with Chang cells is recorded as 4 (Score 4=>80% increase in D-glucose incorporation). On Yes (h), the C3.10 score is listed as 1 (Score 1 = 10-30% inhibition).
On to `CCN1CC(=O)NCCCc2cc(ccn2)-c2ncnc(n2)Nc2cc(Cl)cc(c2)C1` [Compound 34], for which the C3.6 score at CDK5/p35 human is 4 (Score 4 = >80% inhibition). For the same compound, the C3.7 score on CDK6/cyclinD3 human is 2 (Score 2 = 30-60% inhibition). The “C2 Score” value in the test on Chang cells was 4 (Score 4=>80% increase in D-glucose incorporation).
For the compound `O=C1NCCCc2cc(ccn2)-c2ncnc(n2)Nc2cccc(c2)CN2CCCC1C2` (stereo not shown) [Compound 15], the C3.6 score on CDK5/p35 human is 1 (Score 1 = 10-30% inhibition). Besides, the C3.7 score at CDK6/cyclinD3 human was 1 (Score 1 = 10-30% inhibition). In addition, on Aurora-A (h), the C3.1 score is listed as 1 (Score 1 = 10-30% inhibition). For the same compound, on Yes (h), the C3.10 score is recorded as 1 (Score 1 = 10-30% inhibition).
Take `CN1CCCC(=O)NCCCc2cc(ccn2)-c2ncnc(n2)Nc2cccc(c2)C1` [Compound 13]: the C3.6 score on CDK5/p35 human is recorded as 1 (Score 1 = 10-30% inhibition). Further, the C3.7 score on CDK6/cyclinD3 human is listed as 1 (Score 1 = 10-30% inhibition). On Aurora-A (h), the C3.1 score is on record as 2 (Score 2 = 30-60% inhibition). Further, the C3.10 score at Yes (h) is on record as 1 (Score 1 = 10-30% inhibition).
Turning to `O=C1NCCCc2cccc(c2)-c2ncnc(n2)Nc2cccc(c2)CN[C@H]1CO` [Compound 46], the C3.6 score on CDK5/p35 human is given as 4 (Score 4 = >80% inhibition). Moreover, the C3.7 score at CDK6/cyclinD3 human was 1 (Score 1 = 10-30% inhibition). For the same compound, the “C2 Score” value with Chang cells is given as 4 (Score 4=>80% increase in D-glucose incorporation).
As for `O=C1CCN2CCN(CC2)Cc2cccc(c2)Nc2ncnc(n2)-c2ccnc(c2)CCCN1` [Compound 35], at CDK5/p35 human, the C3.6 score is given as 4 (Score 4 = >80% inhibition). Also, the C3.7 score on CDK6/cyclinD3 human is 3 (Score 3 = 60-80% inhibition). The “C2 Score” value in the test with Chang cells was 4 (Score 4=>80% increase in D-glucose incorporation). In addition, at Aurora-A (h), the C3.1 score is 1 (Score 1 = 10-30% inhibition). The C3.10 score at Yes (h) is recorded as 2 (Score 2 = 30-60% inhibition).
Turning to `O=C1NCCCc2cc(ccn2)-c2ncnc(n2)Nc2cccc(c2)CN2CCCC12` (stereo not shown) [Compound 12], at CDK5/p35 human, the C3.6 score is 2 (Score 2 = 30-60% inhibition). Also, the C3.7 score on CDK6/cyclinD3 human was 1 (Score 1 = 10-30% inhibition). Moreover, the C3.1 score on Aurora-A (h) is 1 (Score 1 = 10-30% inhibition). Also, at Yes (h), the C3.10 score is 2 (Score 2 = 30-60% inhibition).
Take `O=C1NCCCc2cc(ccn2)-c2ncnc(n2)Nc2cccc(c2)CN2C[C@H](O)C[C@@H]12` [Compound 14]: the C3.6 score on CDK5/p35 human was 1 (Score 1 = 10-30% inhibition). Also, the C3.7 score at CDK6/cyclinD3 human is recorded as 1 (Score 1 = 10-30% inhibition). Moreover, at Aurora-A (h), the C3.1 score is reported as 2 (Score 2 = 30-60% inhibition). Further, the C3.10 score at Yes (h) is 1 (Score 1 = 10-30% inhibition).
Regarding `CN1CCC(=O)NCCCc2cc(ccn2)-c2ncnc(n2)Nc2cccc(c2)C1` [Compound 3], the C3.6 score at CDK5/p35 human was 3 (Score 3 = 60-80% inhibition). Besides, the C3.7 score at CDK6/cyclinD3 human is listed as 2 (Score 2 = 30-60% inhibition). In addition, on Aurora-A (h), the C3.1 score is given as 1 (Score 1 = 10-30% inhibition). On Yes (h), the C3.10 score was 2 (Score 2 = 30-60% inhibition).
On to `CN1CC(=O)NCCCc2cc(ccn2)-c2ncnc(n2)Nc2cc(Cl)cc(c2)C1` [Compound 33], for which the C3.6 score on CDK5/p35 human is on record as 4 (Score 4 = >80% inhibition). For the same compound, the C3.7 score on CDK6/cyclinD3 human was 3 (Score 3 = 60-80% inhibition). For the same compound, in the test with Chang cells, the “C2 Score” value is reported as 4 (Score 4=>80% increase in D-glucose incorporation).
As for `O=C1CN2CCN(CC2)Cc2cc(Cl)cc(c2)Nc2ncnc(n2)-c2ccnc(c2)CCCN1` [Compound 41], at CDK5/p35 human, the C3.6 score is recorded as 3 (Score 3 = 60-80% inhibition). The C3.7 score on CDK6/cyclinD3 human is 1 (Score 1 = 10-30% inhibition). Further, the “C2 Score” value in the test with Chang cells is 4 (Score 4=>80% increase in D-glucose incorporation).
For the compound `CCN1CC(=O)NCCCc2cccc(c2)-c2ncnc(n2)Nc2cccc(c2)C1` [Compound 54], on CDK5/p35 human, the C3.6 score is reported as 3 (Score 3 = 60-80% inhibition). Moreover, on CDK6/cyclinD3 human, the C3.7 score is on record as 1 (Score 1 = 10-30% inhibition). Moreover, in the test with Chang cells, the “C2 Score” value is given as 4 (Score 4=>80% increase in D-glucose incorporation). Besides, on Yes (h), the C3.10 score is 2 (Score 2 = 30-60% inhibition).
In the case of `O=C1CN2CCN(CC2)Cc2cccc(c2)Nc2ncnc(n2)-c2ccnc(c2)CCCN1` [Compound 9], the C3.6 score on CDK5/p35 human is 2 (Score 2 = 30-60% inhibition). Also, on CDK6/cyclinD3 human, the C3.7 score is reported as 1 (Score 1 = 10-30% inhibition). Moreover, the “C2 Score” value in the test on Chang cells was 4 (Score 4=>80% increase in D-glucose incorporation).
